Measurements: patent publication US20140357512A1, “HISTONE DEACETYLASE (HDAC) BIOMARKERS IN MULTIPLE MYELOMA” (priority 2013, published 2014)

Test system: human myeloma cell line MM.1S
Assay: SILAC acetylated-lysine peptide profiling, HDAC inhibitor vs DMSO (light/heavy ratio)
Type: cell-based
Source text: An embodiment of the invention comprises utilizing the SILAC method in order to quantitate changes in protein expression between two or more populations of cells. The SILAC method is a technique based on mass spectrometry that detects differences in protein abundance among samples using non-radioactive isotopic labeling. The SILAC method is known in the art, and described in detail in Ong et al., “Stable Isotope Labeling by Amino Acids in Cell Culture, SILAC, as a Simple and Accurate Approach to Expression Proteomics”, Molecular & Cellular Proteomics, vol. 1, pp. 376-386 (2002), which is incorporated herein by reference in its entirety.
Briefly, the SILAC method involves growing two populations of cells in cell culture. The first population of cells is grown in growth media containing normal amino acids (“normal media”). The second population of cells is grown in media lacking a standard essential amino acid (such as lysine), but is then supplemented with a non-radioactive, isotopically labeled form of that essential amino acid (such as lysine labeled with ^13C atoms, rather than normal ^12C atoms), which is called “heavy media”. When the two populations of cells are each growing in the medium, they incorporate the amino acids into all of their proteins. The growth of cells maintained in the heavy media is no different from that in normal media. All peptides containing the heavy amino acids are heavier than their normal counterparts. The cells from each of the two populations of cells are lysed. The lysates from each of the two cell populations are then combined. The combined cell lysates are then analyzed by mass spectrometry. Pairs of chemically identical peptides of different stable isotope composition can be differentiated in a mass spectrometer due to their difference in mass. The ratio of peak intensities in the mass spectrum for such peptide pairs reflects the abundance ratio for the two proteins.
This example describes SILAC studies that were performed to compare the effects of three different HDAC inhibitors (Compound A, Compound B, and tubastatin A) to a control on a human multiple myeloma cell line. The HDAC inhibitors were also compared amongst themselves to determine differences in their effects.
A human myeloma cell line MM.1S was grown using either ^12C (light) or ^13C (heavy) lysine containing culture medium. The “heavy” cells were treated with DMSO as the control, and the “light” cells were treated with a single HDAC inhibitor at 37° C. for 6 hours. The heavy and light cells were lysed, and the lysates were mixed in 1:1 ratio and digested with the protease trypsin. The acetylated lysine containing peptides (due to the action of the HDAC inhibitor) in the digested peptide pool were captured by a non-specific anti-acetylated lysine antibody cocktail (the antibodies identify both light and heavy acetylated peptides), and subjected to mass spectrometry analysis in order to identify thousands of individual peptides.
Thousands of peptides were identified in pairs (^12C and ^13C) due to their known mass differences. The amino acid sequence and quantitative ratio (Light/Heavy) of a given peptide in two differentially treated cell lysates were then determined and annotated with their possible protein (gene) sources.
As stated above, three HDAC inhibitors (Compound A, Compound B, and Tubastatin A) were used. Thus, the SILAC method was performed three times, with a different HDAC inhibitor compared to a control each time. Accordingly, there are three pairs of quantitative data in the table below, i.e., Compound A:DMSO, Compound B:DMSO, and Tubastatin A:DMSO. A cut-off of 1.30 fold of change (increase or decrease) was then used to determine “changed” or “+” in the table, and any peptides with a fold of change less than 1.3 fold were determined to be “unchanged” or “0” in the table. Those peptides that were not identified were marked as “NA” in the table. […]

Q: `CN1CCc2c(c3ccccc3n2Cc2ccc(C(=O)NO)cc2)C1` [Tub A] was tested. Which “light to heavy ratio (L/H ratio), log 2 scale, acetylated peptide VGDK(ac)VLLPEYGGTK (SEQ ID NO: 773)” value (10 kDa heat shock protein mitochondrial [70], gene HSPE1, drug:DMSO) did it give?
A: The value was 0.00.

Q: And the “light to heavy ratio (L/H ratio) of acetylated peptide IQEVLK(ac)HAR (SEQ ID NO: 264)” value (39S ribosomal protein L20 mitochondrial [26], MRPL20, drug:DMSO)?
A: The value was 0.38 log 2.

Q: What about the “light to heavy ratio (L/H ratio) of acetylated peptide FK(ac)LITEDVQGK (SEQ ID NO: 287)” value (40S ribosomal protein S3a [85], SNORD73A, RPS3A, drug:DMSO) of the same molecule?
A: The value was −0.66 log 2.

Q: What about the “light to heavy ratio (L/H ratio) of acetylated peptide KDVHMPK(ac)HPELADK (SEQ ID NO: 353)” value (40S ribosomal protein S10 [31], RPS10, drug:DMSO) of the same molecule?
A: The value was 0.00 log 2.

Q: And the “light to heavy ratio (L/H ratio) of acetylated peptide NK(ac)IAGYVTHLMK (SEQ ID NO: 559)” value (40S ribosomal protein S17 [49], gene RPS17, RPS17L, inhibitor:DMSO)?
A: Its value is 0.00 log 2.

Q: And the “light to heavy ratio (L/H ratio) of acetylated peptide GIVLEK(ac)VGVEAK (SEQ ID NO: 320)” value (40S ribosomal protein S23 [54], RPS23, drug:DMSO)?
A: Its value is −0.55 log 2.

Q: What about the “light to heavy ratio (L/H ratio), log 2 scale, acetylated peptide ALEK(ac)IDLK (SEQ ID NO: 813)” value (60S ribosomal protein L3 [362], gene SNORD43, RPL3, drug:DMSO) of the same molecule?
A: The value was 0.00.

Q: And the “light to heavy ratio (L/H ratio) of acetylated peptide IPK(ac)HLTDAYFK (SEQ ID NO: 259)” value (60S ribosomal protein L6 [211], RPL6, drug:DMSO)?
A: The value was −0.63 log 2.

Q: What about the “light to heavy ratio (L/H ratio) of acetylated peptide GPLDK(ac)WR (SEQ ID NO: 622)” value (60S ribosomal protein L10-like [208], gene RPL10L, inhibitor:DMSO) of the same molecule?
A: The value was 0.00 log 2.

Q: And the “light to heavy ratio (L/H ratio), log 2 scale, acetylated peptide YMVK(ac)SCGK (SEQ ID NO: 811)” value (60S ribosomal protein L10 [78], gene SNORA70, RPL10, drug:DMSO)?
A: Its value is 0.00.

Q: What about the “light to heavy ratio (L/H ratio) of acetylated peptide VITEEEK(ac)NFK (SEQ ID NO: 522)” value (60S ribosomal protein L13 [174], gene RPL13, inhibitor:DMSO) of the same molecule?
A: The value was 0.00 log 2.

Q: What about the “light to heavy ratio (L/H ratio) of acetylated peptide LAAIVAK(ac)QVLLGR (SEQ ID NO: 505)” value (60S ribosomal protein L13a [25], gene SNORD32A, RPL13A, SNORD33, SNORD34, inhibitor:DMSO) of the same molecule?
A: Its value is 0.00 log 2.

Q: What about the “light to heavy ratio (L/H ratio) of acetylated peptide K(ac)FAYLGR (SEQ ID NO: 614)” value (60S ribosomal protein L13a [134], gene SNORD32A, RPL13A, SNORD33, SNORD34, inhibitor:DMSO) of the same molecule?
A: Its value is 0.00 log 2.

Q: What about the “light to heavy ratio (L/H ratio), log 2 scale, acetylated peptide LAHEVGWK(ac)[…] (SEQ ID NO: 812)” value (60S ribosomal protein L13a [148], gene SNORD32A, RPL13A, SNORD33, SNORD34, drug:DMSO) of the same molecule?
A: The value was 0.00.

Q: And the “light to heavy ratio (L/H ratio) of acetylated peptide RNPDTQWITK(ac)PVHK (SEQ ID NO: 581)” value (60S ribosomal protein L15 [153], gene RPL15, inhibitor:DMSO)?
A: Its value is 0.00 log 2.

Q: What about the “light to heavy ratio (L/H ratio), log 2 scale, acetylated peptide YSVDIPLDK(ac)TVVNK (SEQ ID NO: 807)” value (60S ribosomal protein L27 [93], gene RPL27, drug:DMSO) of the same molecule?
A: Its value is 0.00.

Q: And the “light to heavy ratio (L/H ratio), log 2 scale, acetylated peptide TVVNK(ac)DVFR (SEQ ID NO: 766)” value (60S ribosomal protein L27 [98], gene RPL27, drug:DMSO)?
A: Its value is 0.00.

Q: And the “light to heavy ratio (L/H ratio) of acetylated peptide NCSSFLIK(ac)R (SEQ ID NO: 558)” value (60S ribosomal protein L28 [19], gene RPL28, inhibitor:DMSO)?
A: The value was 0.00 log 2.

Q: What about the “light to heavy ratio (L/H ratio) of acetylated peptide LWSK(ac)AIFAGYK (SEQ ID NO: 538)” value (60S ribosomal protein L35a [8], gene RPL35A, inhibitor:DMSO) of the same molecule?
A: The value was 0.00 log 2.

Q: And the “light to heavy ratio (L/H ratio) of acetylated peptide AIFAGYK(ac)R (SEQ ID NO: 300)” value (60S ribosomal protein L35a [15], RPL35A, drug:DMSO)?
A: Its value is 0.44 log 2.

Q: What about the “light to heavy ratio (L/H ratio) of acetylated peptide VMEHFIK(ac)LYK (SEQ ID NO: 276)” value (78 kDa glucose-regulated protein [268], HSPA5, drug:DMSO) of the same molecule?
A: The value was −0.66 log 2.

Q: What about the “light to heavy ratio (L/H ratio) of acetylated peptide AK(ac)FEELNMDLFR (SEQ ID NO: 266)” value (78 kDa glucose-regulated protein [326], HSPA5, drug:DMSO) of the same molecule?
A: The value was −0.52 log 2.

Q: What about the “L/H ratio of acetylated peptide” value ((ac)AVPPTYADLGK(ac)SAR (SEQ ID NO: 464), Voltage-dependent anion-selective channel protein 1 [12], VDAC1) of the same molecule?
A: The value was 0.00 log 2.

Q: What about the “light to heavy ratio (L/H ratio) of acetylated peptide, log 2 scale” value ((ac)SIGVPIK(ac)VLHEAEGHIVTCETNTGEVYR (SEQ ID NO: 224), Small nuclear ribonucleoprotein Sm D3 [8], SNRPD3) of the same molecule?
A: The value was 0.40.

Q: What about the “L/H ratio of acetylated peptide” value ((ac)SSNECFK(ac)CGR (SEQ ID NO: 379), Isoform 1 of Cellular nucleic acid-binding protein [8], CNBP) of the same molecule?
A: Its value is 0.00 log 2.

Q: And the “light to heavy ratio (L/H ratio) of acetylated peptide, log 2 scale” value ((ac)SVFGK(ac)LFGAGGGK (SEQ ID NO: 143), Charged multivesicular body protein 4b [6], CHMP4B)?
A: The value was −0.39.

Q: What about the “L/H ratio of acetylated peptide IHNFGLIQEK(ac)LAR (SEQ ID NO: 19)” value (ACADVL [428], log 2 scale, drug vs DMSO) of the same molecule?
A: Its value is −0.60.

Q: And the “L/H ratio of acetylated peptide NLQK(ac)EVIHR (SEQ ID NO: 125)” value (ACOX1 [504], log 2 scale, drug vs DMSO)?
A: The value was 0.54.

Q: And the “L/H ratio of acetylated peptide LDHLAEK(ac)FR (SEQ ID NO: 20)” value (ACTN1 [398], log 2 scale, drug vs DMSO)?
A: Its value is −0.51.

Q: And the “L/H ratio of acetylated peptide LVDQSGPPHEPK(ac)FVYQAK (SEQ ID NO: 126)” value (ADAR [757], log 2 scale, drug vs DMSO)?
A: The value was −0.41.

Q: And the “light to heavy ratio (L/H ratio) of acetylated peptide, log 2 scale” value (ADINTK(ac)WAATR (SEQ ID NO: 202), Ribosomal protein L14 variant [85], RPL14)?
A: The value was −0.50.

Q: What about the “light to heavy ratio (L/H ratio) of acetylated peptide, log 2 scale” value (ADK(ac)DYHFK (SEQ ID NO: 191), Isoform 2 of Nucleophosmin [27], NPM1) of the same molecule?
A: The value was −0.60.

Q: What about the “light to heavy ratio (L/H ratio) of acetylated peptide IFGSNK(ac)WTTEQQQR (SEQ ID NO: 306)” value (ADP-ribosylation factor-like protein 6-interacting protein 1 [96], ARL6IP1, drug:DMSO) of the same molecule?
A: The value was 0.45 log 2.

Q: And the “light to heavy ratio (L/H ratio) of acetylated peptide TTLLYK(ac)LK (SEQ ID NO: 624)” value (ADP-ribosylation factor-like protein 11 [31], gene ARL11, inhibitor:DMSO)?
A: Its value is 0.00 log 2.

Q: And the “light to heavy ratio (L/H ratio) of acetylated peptide IFK(ac)SDGLR (SEQ ID NO: 280)” value (ADP/ATP translocase 1 [166], SLC25A4, drug:DMSO)?
A: Its value is 0.48 log 2.

Q: What about the “light to heavy ratio (L/H ratio) of acetylated peptide ITK(ac)SDGIR (SEQ ID NO: 587)” value (ADP/ATP translocase 3 [166], gene SLC25A6, inhibitor:DMSO) of the same molecule?
A: Its value is 0.00 log 2.

Q: What about the “L/H ratio of acetylated peptide HLSDSINQK(ac)HFEQAIER” value (AFG3L2 [543], log 2 scale, drug vs DMSO) of the same molecule?
A: The value was −0.39.

Q: And the “light to heavy ratio (L/H ratio) of acetylated peptide, log 2 scale” value (AFYK(ac)SFSK (SEQ ID NO: 170), Endoplasmin [360], HSP90B1)?
A: The value was −1.00.

Q: What about the “light to heavy ratio (L/H ratio) of acetylated peptide, log 2 scale” value (AGVNTVTTLVENK(ac)K (SEQ ID NO: 206), 60S ribosomal protein L7a [150], RPL7A, SNORD24) of the same molecule?
A: Its value is −0.42.

Q: What about the “light to heavy ratio (L/H ratio) of acetylated peptide, log 2 scale” value (AGYNVK(ac)QLFR (SEQ ID NO: 199), Isoform 1 of Ras-related protein Rab-6A [164], RAB6A) of the same molecule?
A: The value was 0.45.

Q: And the “light to heavy ratio (L/H ratio) of acetylated peptide, log 2 scale” value (AHPVFYQGTYSQALNDAK(ac)R (SEQ ID NO: 153), FAS-associated factor 2 [167], FAF2)?
A: Its value is −0.48.

Q: What about the “L/H ratio of acetylated peptide LK(ac)DISTLEPLKK (SEQ ID NO: 21)” value (ANP32B [101], log 2 scale, drug vs DMSO) of the same molecule?
A: Its value is −0.56.

Q: And the “L/H ratio of acetylated peptide QRQEVCQSYK(ac)SLYGK (SEQ ID NO: 22)” value (ANXA6 [63], log 2 scale, drug vs DMSO)?
A: Its value is 0.68.

Q: And the “L/H ratio of acetylated peptide LGTDESK(ac)FNAVLCSR (SEQ ID NO: 7)” value (ANXA11 [478], log 2 scale, drug vs DMSO)?
A: Its value is −0.44.
